Measured values as given in patent publication US20250099582A1, “TREATMENT OF PATIENTS DIAGNOSED WITH PANCREATIC DUCTAL ADENOCARCINOMA USING MONOCLONAL ANTIBODIES AGAINST THE EPIDERMAL GROWTH FACTOR RECEPTOR (EGFR)” (INNOCIMAB PTE LTD, priority 2015, published 2025).
Entries after “also recorded” stand apart in the source; their conditions may differ.

How the values were obtained:
[1] = test system: PDAC patients; details: cited from earlier work
[2] = Same clinical trial: safety, serious adverse events (SAEs); format: in vivo, human; details: for number of serious adverse events (SAEs) reported in the arm: 93 patients per arm; for patients with serious adverse events (SAEs): of 93 patients in the arm
Protocol: (§1) One hundred and ninety two (192) newly diagnosed patients with locally advanced or metastatic pancreatic cancer were randomized and recruited into 2 arms, on the treatment arm patients were administered administered i.v infusion of nimotuzumab at 400 mg dose once a week until progressive disease or unacceptable toxicity and gemcitabine 1000 mg/m^2 once weekly for 3 weeks, followed by a 1-week rest (d1, 8, 15; q28) and on the control arm patients were administered i.v infusion of placebo once a week until progressive disease or unacceptable toxicity and gemcitabine 1000 mg/m^2 once weekly for 3 weeks, followed by a 1-week rest (d1, 8, 15; q28).
(§2) As a primary endpoint, overall survival (OS) in the intention-to-treat (ITT) population was evaluated. The OS was assessed by the date of the last visit, death or loss of the follow up. The OS was initially calculated for all population and then a subset analysis was run taking into consideration the KRAS status of each of the patients on each treatment arm. Secondary endpoints included progression free survival (PFS), assessed by the day of the progression or the death, safety, assessed by the incidence of adverse events (AE) or serious adverse events (SAE), objective response rate (ORR), assessed by the number of patients on each treatment arm with Complete Response (CR) and Partial Response (PR) to the treatment ((CR+PR)/N, No. patients in the arm)) and Quality of Life (QoL), assessed using EORTC quality of life questionnaire QLQ-C30 version 2.0 (EORTC, NL).

[3] = test system: locally advanced or metastatic pancreatic cancer patients; assay: Randomized clinical trial of gemcitabine plus nimotuzumab versus gemcitabine plus placebo: survival by KRAS status; format: in vivo, human; details: for overall survival (OS), Kaplan-Meier, versus placebo-gemcitabine arm / progression-free-survival (PFS), Kaplan-Meier, versus placebo-gemcitabine arm: nimotuzumab 400 mg i.v. once weekly + gemcitabine 1000 mg/m^2 (d1, 8, 15; q28)
Protocol: In this clinical trial patients with previously untreated, unresectable, locally advanced or metastatic pancreatic adenocarcinoma received gemcitabine (1000 mg/m^2/30-min iv once weekly (d1, 8, 15; q28)) and nimotuzumab (400 mg 30-min iv once weekly), or placebo until disease progression or unmanageable toxicity. The primary endpoint in this study was overall survival (OS) in the intention-to-treat (ITT) population. The secondary endpoints included progression free survival (PFS), safety, objective response rate (ORR), and Quality of Life (QoL).
as §1
Tumor response was assessed using CT (Computed Tomography) or MRI (Magnetic Resonance Imaging) and statistically analyzed using RECIST (Response Evaluation Criteria in Solid Tumors), which provides guidelines for identifying complete response, partial response, stable disease, or progressive disease based on tumor size (see, e.g., Therasse et al., February 2000, “New Guidelines to Evaluate the Response to Treatment in Solid Tumors,” J. Natl. Cancer Inst. 92 (3): 205-216) and overall survival was assessed by the last patient visit, death or loss of follow up.
Out of 192 patients that were randomized into 2 arms, tumor samples were taken from 101 patients (49 from the control arm and 52 from the treatment arm).
To determine if KRAS status correlates with survival the 101 samples were tested. From the KRAS analysis of the 101 samples, 34 samples were KRAS Wild Type (20 from the control arm and 14 from the treatment arm) and 67 samples has the mutation of the KRAS (29 from the control arm and 38 from the treatment arm).
as §2
Progression-free-survival (PFS) is defined as the length of time during and after the treatment of a disease, such as cancer, that a patient lives with the disease without worsening of the symptoms and was measured from date of randomization to the occurrence of progression or death or last date of observation without progression.

[4] = patients with KRAS mutated, FIG. 3
[5] = patients with KRAS wild type, FIG. 4

Molecule: C#Cc1cccc(Nc2ncnc3cc(OCCOC)c(OCCOC)cc23)c1 [Erlotinib]
- PDAC patients in whom treatment has shown benefit ([1]; Moore et al. J Clin Oncol. 2007): about 10%
- prolongation of median survival ([1]; addition to gemcitabine): 2 weeks

Molecule: Nc1ccn([C@@H]2O[C@H](CO)[C@@H](O)C2(F)F)c(=O)n1 [placebo-gemcitabine, gemcitabine, reference compound]
- number of serious adverse events (SAEs) reported in the arm [2]: 104 SAEs
- patients with serious adverse events (SAEs) [2]: 65.6%

Molecule: nimotuzumab-gemcitabine: treatment arm: nimotuzumab 400 mg i.v. once a week plus gemcitabine 1000 mg/m^2 once weekly for 3 weeks, 1-week rest
- overall survival (OS), Kaplan-Meier, versus placebo-gemcitabine arm [3, 4]: no difference
- progression-free-survival (PFS), Kaplan-Meier, versus placebo-gemcitabine arm [3, 4]: no difference
- overall survival (OS), Kaplan-Meier, versus placebo-gemcitabine arm [3, 5]: significant difference in favour of the treatment arm; also recorded: significant improvement
- progression-free-survival (PFS), Kaplan-Meier, versus placebo-gemcitabine arm [3, 5]: significant difference in favour of the treatment arm; also recorded: significant improvement
- overall survival (OS), Kaplan-Meier, versus placebo-gemcitabine arm ([3]; patients with KRAS wild type, FIG. 4, listed as nimotuzumab and gemcitabine): significantly improved
- increase of median overall survival compared to control arm (placebo-gemcitabine) ([3]; subgroup of KRAS WT): 6 months
- number of serious adverse events (SAEs) reported in the arm [2]: 108 SAEs
- patients with serious adverse events (SAEs) [2]: 58.1%

Molecule: nimotuzumab: anti-EGFR humanized monoclonal antibody produced by the cell line h-R3 deposited as ECACC 951110101
- SAE related to study drug: general physical health deterioration, subjects ([2]; nimotuzumab arm): 3.23%
- SAE related to study drug: nausea, subjects ([2]; nimotuzumab arm): 2.15%
- SAE related to study drug: thrombocytopenia, subjects ([2]; nimotuzumab arm): 2.15%
- SAE related to study drug: vomiting, subjects ([2]; nimotuzumab arm): 2.15%
- patients with SAEs reported to be related to the study drug ([2]; nimotuzumab arm, of 93 patients): 16.1%
- number of SAEs reported to be related to the study drug ([2]; nimotuzumab arm, of the 108 SAEs): 26 SAEs
